This note sets out measurements from ChEMBL document CHEMBL3745629, “Novel Amino-pyrazole Ureas with Potent In Vitro and In Vivo Antileishmanial Activity” (J Med Chem, 2015).

One may read the AUC(0-t) as exposure summed from dosing to a finite time, without extrapolation to infinity. A higher AUC(0-t) goes with high exposure. As usually defined, the Cmax is the peak of the concentration-time curve. The term Tmax denotes the time from dosing to the highest level.

Format in all cases: ADME, organism-based, Mesocricetus auratus
Conditions in all cases: in vivo

Series [1] can be described thus: AUC (0 to 24 hrs) in golden hamster at 50 mg/kg, po. The arrangement: dose 50 mg/kg, time < 24 hr, route oral.
The nature of series [2]: Cmax in golden hamster at 50 mg/kg, po. The arrangement: dose 50 mg/kg, route oral.
The nature of series [3]: Tmax in golden hamster at 50 mg/kg, po.

`O=C(Nc1cc(-c2ccccn2)n[nH]1)N1CCN(c2ccc(F)cc2)CC1` had an AUC(0-t) at 24 h in series [1] of 25400 ng·h/mL. In series [2], the peak level (Cmax) was 5680 ng/mL. Moreover, the Tmax in series [3] worked out at 1.33 h.
